Our source for the IC50 values is patent publication US11236107B2, “Crystal of tricyclic compound” (Chia Tai Tianqing Pharmaceutical Group Co., Ltd., priority 2017, dated 2022).

Assay [1] addresses T1, recombinant human IDO1 enzyme (Homo sapiens, UniProt P14902).
T1 construct: purchased NTRC NTRC-hIDO-10K
Description: In vitro hIDO1 enzyme activity test (NFK Green fluorescence). To be noted: recombinant human IDO1, L-tryptophan substrate, pH 6.5, NFK Green readout. It counts as biochemical. The protocol:
Experimental Example 1: In Vitro hIDO1 Enzyme Activity Test
The change of NFK production was detected by using the NFK Green™ fluorescent molecule, which is the metabolite of the IDO1 enzyme, and the IC50 value of the compound was used as an index, to evaluate the inhibitory effect of the compound of formula I on the recombinant human IDO1 enzyme.
The compound of formula I was diluted to 1 mM with DMSO, and then diluted 3-fold in duplicate wells, with 10 gradients. 48 μL of 50 mM phosphate buffer (pH 6.5) was transferred and added to the compound plate via Bravo automated liquid handling platform. 2 μL of the diluted solution of the compound in DMSO was then added thereto and mixed, followed by transferring 10 μL thereof to an enzyme reaction plate.
The IDO1 enzyme was diluted to 20 nM in the reaction buffer (50 mM phosphate buffer (pH 6.5), 0.1% Tween-20, 2% glycerol, 20 mM ascorbic acid, 20 μg/mL catalase and 20 μM methylene blue), 20 μL of which was transferred to an enzyme reaction plate and incubated at 23° C. for 30 min. The reaction was started by adding 10 μL of 400 μM L-tryptophan substrate and incubated at 23° C. for 90 min. 10 μL of NFK Green™ fluorescent dye was added thereto, and the plate was sealed with the microplate sealing film, incubated at 37° C. for 4 h, and then read on Envision Multimode Microplate Reader (Ex 400 nm/Em 510 nm). […]

Assay [2] concerns the target T2, IDO1 enzyme in Hela cells (Homo sapiens, UniProt P14902).
T2 construct: recombinant human γ-interferon was added to a final concentration of 100 ng/mL to induce IDO1 expression; endogenous in cells; host or cells: Hela cells
Nature of the assay: hIDO1 cytological activity assay (kynurenine in Hela cells by LC-MS). It counts as cell-based. To be noted: IDO1 induced with 100 ng/mL recombinant human γ-interferon, 20 h, read-out: hIDO1 Cytological active IC50. How it is done: Experimental Example 2: hIDO1 Cytological Activity Assay
The change of kynurenine in Hela cells was detected by the LC-MS method, and the IC50 value of the compound was used as an index to evaluate the inhibitory effect of the compound of formula I on IDO1 enzyme.
The culture medium, trypsin and DPBS were preheated in a 37° C. water bath. The culture medium for cell culture was sucked out and washed with 10 mL of DPBS; the preheated trypsin was added into the culture flask, and the flask was rotated to allow the trypsin to uniformly cover it, and then placed in a 37° C., 5% CO2 incubator to digest for 1-2 min; in each T150, cells were dispersed with 10-15 mL of the culture medium, centrifuged at 800 rpm for 5 min, and then resuspended with 10 mL of medium; 1 mL of cell suspension was pipetted and cells were counted with Vi-cell; Hela cells were diluted with the culture medium to 5×10^5/mL, 80 μL of the solution was added to a 96-cell plate, and cultured at 37° C. for 5-6 h in a 5% CO2 incubator.
The compound was diluted to 1 mM with DMSO, and then diluted 3-fold in duplicate wells, with 9 gradients. […]
10 μL of recombinant human γ-interferon was added to a final concentration of 100 ng/mL to induce IDO1 expression. […] The content of kynurenine was detected by LC-MS. […]

T2 sequence (P14902 whole entry): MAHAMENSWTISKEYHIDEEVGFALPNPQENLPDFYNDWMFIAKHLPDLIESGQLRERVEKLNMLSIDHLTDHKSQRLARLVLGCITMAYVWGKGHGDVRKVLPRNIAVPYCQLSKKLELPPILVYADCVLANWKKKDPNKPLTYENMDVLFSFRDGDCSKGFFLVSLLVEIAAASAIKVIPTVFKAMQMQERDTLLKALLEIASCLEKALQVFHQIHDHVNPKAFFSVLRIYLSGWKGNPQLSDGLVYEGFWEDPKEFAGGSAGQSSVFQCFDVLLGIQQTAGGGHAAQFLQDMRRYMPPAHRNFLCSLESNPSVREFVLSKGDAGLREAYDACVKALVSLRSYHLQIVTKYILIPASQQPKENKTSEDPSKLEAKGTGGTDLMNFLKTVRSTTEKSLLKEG
T1 sequence (P14902 whole entry): as above

On to `FC1(F)CCC([C@H]2c3sccc3-c3cncn32)CC1` [Compound of formula I, (S)-8-(4,4-difluorocyclohexyl)-8H-thieno[3,4]pyrrolo[1,5-a]imidazole], for which the values for the IC50 in assay [1] and in assay [2] were 48 nM and 74.9 nM, respectively.
